Experimental data taken from patent US4873225A, “1-n-(4-amino-3-fluoro-2-hydroxybutyryl)-kanamycins” (Zaidan Hojin Biseibutsu Kagaku Kenkyu Kai, priority 1987, dated 1989).
Values after ≈ are worked out from the molar mass of the structure shown. Where two headings read alike, the source gives them in different places.

Key:
[1] = tested on: gram-positive and gram-negative bacteria, including resistant strains; conditions: reported in earlier applications, cited from earlier work
[2] = tested on: gram-positive bacteria, gram-negative bacteria and various kanamycin-resistant strains of bacteria; experiment: Antibacterial activity in vitro, in words; format: cell-based; conditions: tested in vitro
Procedure: The present inventors have carried out an extensive investigation in an attempt to produce such novel kanamycin derivatives which are capable of fulfilling such demands. […] The present invention has been completed on the basis of these above findings.
(§1) Antibacterial activities of each of the abovementioned compounds of the general formula (I) according to this invention were determined by measuring their minimum growth inhibitory concentrations (MIC, mcg/ml) against various bacteria in accordance with a standard serial dilution method. The pH condition of the incubation medium where the MIC data were measured was set at pH 7, unless otherwise specifically indicated. For the sake of comparison, the antibacterial spectra of 1-N-{(S)-4-amino-2-hydroxybutyryl}kanamycin A (i.e., amikacin) and 1-N-{(S)-4-amino-2-hydroxybutyryl}-3,4-dideoxykanamycin B (i.e., habekacin) were also measured in the same manner.

Bacillus subtilis PCI219 = experiment: MIC, standard serial dilution method; format: cell-based; conditions: PCI219, pH 7, read-out: MIC
Procedure: as §1

[3] = tested on: Corynebacterium bovis 1810; experiment: MIC, standard serial dilution method; format: cell-based; conditions: Corynebacterium bovis, 1810, pH 7; read-out: MIC
Procedure: as §1

Escherichia coli JR 225 = experiment: MIC, standard serial dilution method; format: cell-based; conditions: JR225, pH 7
Procedure: as §1

[4] = tested on: Escherichia coli K-12 LA 290 R55; experiment: MIC, standard serial dilution method; format: cell-based; conditions: K12LA290R55, pH 7
Procedure: as §1

[5] = tested on: Escherichia coli K-12 ML 1629; experiment: MIC, standard serial dilution method; format: cell-based; conditions: K12ML1629, pH 7, read-out: MIC
Procedure: as §1

Escherichia coli K-12 = experiment: MIC, standard serial dilution method; format: cell-based; conditions: K12, pH 7
Procedure: as §1

[6] = tested on: Klebsiella pneumoniae 22 #3038; experiment: MIC, standard serial dilution method; format: cell-based; conditions: pH 7, read-out: MIC
Procedure: as §1

Mycobacterium 607 = experiment: MIC, standard serial dilution method; format: cell-based; conditions: Mycobacterium, 607, pH 7; read-out: MIC
Procedure: as §1

Proteus rettgeri GN 311 = experiment: MIC, standard serial dilution method; format: cell-based; conditions: Providencia rettgeri, GN311, pH 7; read-out: MIC
Procedure: as §1

Providencia sp. Pv 16 = experiment: MIC, standard serial dilution method; format: cell-based; conditions: SP.PV16, pH 7, read-out: MIC
Procedure: as §1

[7] = tested on: Pseudomonas aeruginosa A3; experiment: MIC, standard serial dilution method; format: cell-based; conditions: A3, pH 7, read-out: MIC
Procedure: as §1

[8] = tested on: Pseudomonas aeruginosa GN 315; experiment: MIC, standard serial dilution method; format: cell-based; conditions: GN315, pH 7
Procedure: as §1

Serratia marcescens = experiment: MIC, standard serial dilution method; format: cell-based; conditions: pH 7, read-out: MIC
Procedure: as §1

[9] = tested on: Staphylococcus aureus 209P; experiment: MIC, standard serial dilution method; format: cell-based; conditions: pH 7, read-out: MIC
Procedure: as §1

[10] = tested on: Staphylococcus aureus Ap01; experiment: MIC, standard serial dilution method; format: cell-based; conditions: AP01, pH 7, read-out: MIC
Procedure: as §1

Escherichia coli K-12 R5 = experiment: MIC, standard serial dilution method; format: cell-based; conditions: K12R5, pH 7
Procedure: as §1
Infectious diseases by Escherichia coli K-12 R5 tend to increase in recent days. The compounds of this invention are therefore important for the therapeutic treatment of bacterial infections.

[11] = tested on: Escherichia coli JR66/W677; experiment: MIC, standard serial dilution method; format: cell-based; conditions: Escherichia coli, read-out: MIC
Procedure: as §1
(§2) (a) The antibacterial activities of the compounds of this invention are not decreased practically even under pH conditions of pH […] as compared to their antibacterial activities under neutral conditions of pH 7.

[12] = tested on: Pseudomonas aeruginosa TI 13; experiment: MIC, standard serial dilution method; format: cell-based; conditions: Pseudomonas aeruginosa, read-out: MIC
Procedure: as §1, §2

mice = experiment: Acute toxicity against mice; format: in vivo; conditions: orally administered, 150 mg/kg
[13] = tested on: Staphylococcus aureus Ap 01; conditions: reported in earlier applications; cited from earlier work
[14] = tested on: Staphylococcus epidermidis 109; conditions: reported in earlier applications; cited from earlier work

SMILES | MIC (Bacillus subtilis PCI219) | MIC [3] | MIC (Escherichia coli JR 225) | MIC [4] | MIC [5] | MIC (Escherichia coli K-12) | MIC [6] | MIC (Mycobacterium 607) | MIC (Proteus rettgeri GN 311) | MIC (Providencia sp. Pv 16) | MIC [7] | MIC [8] | MIC (Serratia marcescens) | MIC [9] | MIC [10] | MIC (Escherichia coli K-12 R5) | MIC ([11]; JR66/W677, pH 7) | MIC ([11]; JR66/W677, measured at pH 6) | MIC ([12]; TI13, pH 7) | MIC ([12]; TI13, measured at pH 6) | other results
NC[C@H]1O[C@H](O[C@H]2[C@H](O)[C@@H](O[C@H]3O[C@H](CO)[C@@H](O)[C@H](N)[C@H]3O)[C@H](N)C[C@@H]2N)[C@H](N)[C@@H](F)[C@@H]1O [3'-deoxy-3'-fluorokanamycin B] |  |  |  |  |  |  |  |  |  |  |  |  |  |  |  |  |  |  |  |  | antibacterial activities (in words) [1]: antibacterial activities against various gram-positive and gram-negative bacteria, including resistant strains
NC[C@H](F)[C@H](O)C(=O)N[C@@H]1C[C@H](N)[C@@H](O[C@H]2O[C@H](CN)[C@@H](O)[C@H](O)[C@H]2N)[C@H](O)[C@H]1O[C@H]1O[C@H](CO)[C@@H](O)[C@H](N)[C@H]1O [1-N-{(2R,3S)-4-amino-3-fluoro-2-hydroxybutyryl}kanamycin B] |  |  |  |  |  |  |  |  |  |  |  |  |  |  |  |  |  |  |  |  | enhancement in antibacterial activities [2]: did not show any enhancement in antibacterial activities
NC[C@@H](F)[C@H](O)C(=O)N[C@@H]1C[C@H](N)[C@@H](O[C@@H]2CC[C@H](O)[C@@H](CN)O2)[C@H](O)[C@H]1O[C@H]1O[C@H](CO)[C@@H](O)[C@H](N)[C@H]1O [Invention Compound No. 2, 1-N-{(2R,3R)-4-Amino-3-fluoro-2-hydroxybutyryl}-2',3'-dideoxykanamycin A] | 0.78 µg/mL (≈ 1.36 µM) | 0.78 µg/mL (≈ 1.36 µM) | 0.39 µg/mL (≈ 0.682 µM) | 0.78 µg/mL (≈ 1.36 µM) | 0.78 µg/mL (≈ 1.36 µM) | 0.39 µg/mL (≈ 0.682 µM) | 3.12 µg/mL (≈ 5.46 µM) | 1.56 µg/mL (≈ 2.73 µM) | 0.78 µg/mL (≈ 1.36 µM) | 1.56 µg/mL (≈ 2.73 µM) | 0.78 µg/mL (≈ 1.36 µM) | 12.5 µg/mL (≈ 21.9 µM) | 3.12 µg/mL (≈ 5.46 µM) | 0.2 µg/mL (≈ 0.35 µM) | 1.56 µg/mL (≈ 2.73 µM) | 6.25 µg/mL (≈ 10.9 µM) | 1.56 µg/mL (≈ 2.73 µM) | 6.25 µg/mL (≈ 10.9 µM) | 3.12 µg/mL (≈ 5.46 µM) | 3.12 µg/mL (≈ 5.46 µM) | survival of mice (mice): all mice surrived
NC[C@@H](F)[C@H](O)C(=O)N[C@@H]1C[C@H](N)[C@@H](O[C@H]2O[C@H](CN)[C@@H](O)[C@H](O)[C@H]2O)[C@H](O)[C@H]1O[C@H]1O[C@H](CO)[C@@H](O)[C@H](N)[C@H]1O [Invention Compound No. 1, 1-N-{(2R,3R)-4-Amino-3-fluoro-2-hydroxybutyryl}-kanamycin A] | 0.78 µg/mL (≈ 1.29 µM) | 0.78 µg/mL (≈ 1.29 µM) | 0.78 µg/mL (≈ 1.29 µM) | 1.56 µg/mL (≈ 2.58 µM) | 1.56 µg/mL (≈ 2.58 µM) | 0.39 µg/mL (≈ 0.646 µM) | 3.12 µg/mL (≈ 5.17 µM) | 1.56 µg/mL (≈ 2.58 µM) | 0.39 µg/mL (≈ 0.646 µM) | 1.56 µg/mL (≈ 2.58 µM) | 0.78 µg/mL (≈ 1.29 µM) | 25 µg/mL (≈ 41.4 µM) | 3.12 µg/mL (≈ 5.17 µM) | 1.56 µg/mL (≈ 2.58 µM) | 6.25 µg/mL (≈ 10.4 µM) | 12.5 µg/mL (≈ 20.7 µM) | 1.56 µg/mL (≈ 2.58 µM) | 6.25 µg/mL (≈ 10.4 µM) | 3.12 µg/mL (≈ 5.17 µM) | 3.12 µg/mL (≈ 5.17 µM) | 
NC[C@@H]1C[C@H](F)[C@@H](N)[C@@H](O[C@H]2[C@H](O)[C@@H](O[C@H]3O[C@H](CO)[C@@H](O)[C@H](N)[C@H]3O)[C@H](N)C[C@@H]2N)O1 [3',4'-dideoxy-3'-fluorokanamycin B] |  |  |  |  |  |  |  |  |  |  |  |  |  |  |  |  |  |  |  |  | effective against resistant strain [13]: effective against such certain resistant strains of bacteria; effective against resistant strain [14]: effective against such certain resistant strains of bacteria
NC[C@H]1O[C@H](O[C@H]2[C@H](O)[C@@H](O[C@H]3O[C@H](CO)[C@@H](O)[C@H](N)[C@H]3O)[C@H](N)C[C@@H]2N)[C@H](O)[C@@H](F)[C@@H]1O [3'-deoxy-3'-fluorokanamycin A] |  |  |  |  |  |  |  |  |  |  |  |  |  |  |  |  |  |  |  |  | antibacterial activities (in words) [1]: effective also against kanamycin-resistant bacteria
NC[C@@H](F)[C@H](O)C(=O)N[C@@H]1C[C@H](N)[C@@H](O[C@H]2O[C@H](CN)[C@@H](O)[C@H](O)[C@H]2O)[C@H](O)[C@H]1O[C@H]1O[C@H](CO)[C@@H](O)[C@H](N)[C@H]1O [Invention Compound Nos. 1] |  |  |  |  |  |  |  |  |  |  |  |  |  |  |  |  |  |  |  |  | survival of mice (mice): all mice surrived
NC[C@H]1O[C@H](O[C@H]2[C@H](F)[C@@H](O[C@H]3O[C@H](CO)[C@@H](O)[C@H](N)[C@H]3O)[C@H](N)C[C@@H]2N)[C@H](N)[C@@H](O)[C@@H]1O [5-deoxy-5-fluorokanamycin B] |  |  |  |  |  |  |  |  |  |  |  |  |  |  |  |  |  |  |  |  | antibacterial activities relative to kanamycin B ([1]; over kanamycin B): enhanced or improved advantageously over kanamycin B
NC[C@@H](F)[C@H](O)C(=O)N[C@@H]1C[C@H](N)[C@@H](O[C@H]2O[C@H](CN)[C@@H](O)C[C@H]2N)[C@H](O)[C@H]1O[C@H]1O[C@H](CO)[C@@H](O)[C@H](N)[C@H]1O [Invention Compound No. 6, 1-N-{(2R,3R)-4-Amino-3-fluoro-2-hydroxybutyryl}-3'-deoxykanamycin B] | 0.2 µg/mL (≈ 0.341 µM) | 0.39 µg/mL (≈ 0.665 µM) | < 0.2 µg/mL | 0.39 µg/mL (≈ 0.665 µM) | 0.78 µg/mL (≈ 1.33 µM) | < 0.2 µg/mL | 1.56 µg/mL (≈ 2.66 µM) | 0.78 µg/mL (≈ 1.33 µM) | 0.39 µg/mL (≈ 0.665 µM) | 0.78 µg/mL (≈ 1.33 µM) | < 0.2 µg/mL | 3.12 µg/mL (≈ 5.32 µM) | 3.12 µg/mL (≈ 5.32 µM) | 0.39 µg/mL (≈ 0.665 µM) | 0.78 µg/mL (≈ 1.33 µM) | 3.12 µg/mL (≈ 5.32 µM) | 0.39 µg/mL (≈ 0.665 µM) | 1.56 µg/mL (≈ 2.66 µM) | 0.78 µg/mL (≈ 1.33 µM) | 3.12 µg/mL (≈ 5.32 µM) | 
NC[C@@H](F)[C@H](O)C(=O)N[C@@H]1C[C@H](N)[C@@H](O[C@H]2O[C@H](CN)[C@@H](O)[C@H](O)[C@H]2N)[C@H](O)[C@H]1O[C@H]1O[C@H](CO)[C@@H](O)[C@H](N)[C@H]1O [Invention Compound No. 5, 1-N-{(2R,3R)-4-Amino-3-fluoro-2-hydroxybutyryl}-kanamycin B] | 1.56 µg/mL (≈ 2.59 µM) | 0.39 µg/mL (≈ 0.647 µM) | 0.39 µg/mL (≈ 0.647 µM) | 0.78 µg/mL (≈ 1.29 µM) | 0.78 µg/mL (≈ 1.29 µM) | 0.2 µg/mL (≈ 0.332 µM) | 3.12 µg/mL (≈ 5.18 µM) | 12.5 µg/mL (≈ 20.7 µM) | 0.39 µg/mL (≈ 0.647 µM) | 1.56 µg/mL (≈ 2.59 µM) | 0.78 µg/mL (≈ 1.29 µM) | 6.25 µg/mL (≈ 10.4 µM) | 6.25 µg/mL (≈ 10.4 µM) | 0.78 µg/mL (≈ 1.29 µM) | 6.25 µg/mL (≈ 10.4 µM) | 3.12 µg/mL (≈ 5.18 µM) | 0.78 µg/mL (≈ 1.29 µM) | 3.12 µg/mL (≈ 5.18 µM) | 1.56 µg/mL (≈ 2.59 µM) | 3.12 µg/mL (≈ 5.18 µM) | 
NC[C@H]1O[C@H](O[C@H]2[C@H](O)[C@@H](O[C@H]3O[C@H](CO)[C@@H](O)[C@H](N)[C@H]3O)[C@H](N)C[C@@H]2N)[C@H](F)C[C@@H]1O [2',3'-dideoxy-2'-fluorokanamycin A] |  |  |  |  |  |  |  |  |  |  |  |  |  |  |  |  |  |  |  |  | antibacterial activities (in words) [1]: antibacterial activities against gram-positive and gram-negative bacteria, including certain resistant strains of bacteria
